Results from US9469615B2, “Quinoxalines and AZA-quinoxalines as CRTH2 receptor modulators” (Merck Sharp & Dohme Corp., priority 2010, dated 2016).

Molecular target: T1, hCRTH2 (Homo sapiens, UniProt Q9Y5Y4)
T1 construct: expressed in transfected cells; host or cells: HEK (human embryonic kidney) cells expressing hCRTH2; membrane preparation
T1 sequence (Q9Y5Y4 1-395): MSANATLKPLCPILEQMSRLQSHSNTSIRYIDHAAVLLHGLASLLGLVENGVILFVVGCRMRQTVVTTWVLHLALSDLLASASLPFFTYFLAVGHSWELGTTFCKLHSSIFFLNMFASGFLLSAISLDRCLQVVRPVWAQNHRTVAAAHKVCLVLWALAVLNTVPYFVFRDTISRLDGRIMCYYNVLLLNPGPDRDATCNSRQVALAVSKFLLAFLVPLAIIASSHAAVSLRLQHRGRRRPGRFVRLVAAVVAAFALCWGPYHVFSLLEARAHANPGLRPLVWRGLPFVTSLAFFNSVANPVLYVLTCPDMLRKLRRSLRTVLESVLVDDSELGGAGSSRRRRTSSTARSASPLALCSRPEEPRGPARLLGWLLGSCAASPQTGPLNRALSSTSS
Assay: Radioligand binding assay ([3H]PGD2 competition, HEK-hCRTH2 membranes)
Details: [3H]PGD2 binding
Method in brief: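 Membranes (8-20 μg protein) from HEK-hCRTH2 cells were incubated 60 min at room temperature with 3.0 nM [3H]PGD2 in 50 mM Tris-HCl pH 7.4, 1 mM EDTA, 2 mM MnCl2, 1% DMSO. Non-specific binding defined with 10 μM PGD2. Bound radioactivity counted after filtration.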

SMILES	Ki (rated A-E (Table A)) [nM]	Ki (values in text) [nM]
O=C(O)CCCCc1nc2cc(C(=O)N3CCCCC3)ccc2nc1-c1ccccc1 [15BF, 5-[3-phenyl-7-(piperidin-1-ylcarbonyl)quinoxalin-2-yl] pentanoic acid]	2.1 to 20	–
CNC(=O)c1ccc2nc(-c3ccccc3)c(CCCCC(=O)O)nc2c1 [15BG, 5-[7-(methylcarbamoyl)-3-phenylquinoxalin-2-yl]pentanoic acid]	2.1 to 20	–
CC(NC(=O)c1ccc2nc(-c3ccccc3)c(CCCCC(=O)O)nc2c1)c1ccccc1F (centres unmarked) [15BH, 5-(7-{[1-(2-fluorophenyl)ethyl]carbamoyl}-3-phenylquinoxalin-2-yl)pentanoic acid]	2.1 to 20	–
CON(C)C(=O)c1ccc2nc(-c3ccccc3)c(CCCCC(=O)O)nc2c1 [15BJ, 5-{7-[methoxy(methyl)carbamoyl]-3-phenylquinoxalin-2-yl}pentanoic acid]	2.1 to 20	–
O=C(O)CCCCc1nc2cc(C(=O)NC3Cc4ccccc4C3)ccc2nc1-c1ccccc1 [15BK, 5-[7-(2,3-dihydro-1H-inden-2-ylcarbamoyl)-3-phenylquinoxalin-2-yl]pentanoic acid]	0.1 to 2	–
C[C@@H](NC(=O)c1ccc2nc(-c3ccccc3)c(CCCCC(=O)O)nc2c1)c1ccccc1C(F)(F)F [15BL, 5-[3-phenyl-7-({(1R)-1-[2-(trifluoromethyl)phenyl]ethyl}carbamoyl)quinoxalin-2-yl]pentanoic acid]	20.1 to 200	69.9
C[C@H](NC(=O)c1ccc2nc(-c3ccccc3)c(CCCCC(=O)O)nc2c1)c1ccc(Cl)cc1 [15BM, 5-(7-{[(1S)-1-(4-chlorophenyl)ethyl]carbamoyl}-3-phenylquinoxalin-2-yl)pentanoic acid]	2.1 to 20	–
O=C(O)CCCCc1nc2cc(C(=O)NCCCN3CCCC3=O)ccc2nc1-c1ccccc1 [15BN, 5-(7-{[3-(2-oxopyrrolidin-1-yl)propyl]carbamoyl}-3-phenylquinoxalin-2-yl)pentanoic acid]	2.1 to 20	–
Cc1cn(C2CCN(C(=O)c3ccc4nc(-c5ccccc5)c(CCCCC(=O)O)nc4c3)CC2)nn1 [15BQ, 5-(7-{[4-(4-methyl-1H-1,2-3-triazol-1-yl)piperidin-1-yl]carbonyl}-3-phenylquinoxalin-2-yl) pentanoic acid]	2.1 to 20	–
Cc1cnnn1C1CCN(C(=O)c2ccc3nc(-c4ccccc4)c(CCCCC(=O)O)nc3c2)CC1 [15BR, 5-(7-{[4-(5-methyl-1H-1,2,3-triazol-1-yl)piperidin-1-yl]carbonyl}-3-phenylquinoxalin-2-yl)pentanoic acid]	0.1 to 2	0.1
O=C(O)CCCCc1nc2cc(C(=O)N3CCC(c4cnccn4)CC3)ccc2nc1-c1ccccc1 [15BS, 5-{3-phenyl-7-[(4-pyrazin-2-ylpiperidin-1-yl)carbonyl]quinoxalin-2-yl}pentanoic acid]	2.1 to 20	–
O=C(O)CCCCc1nc2cc(C(=O)NCc3cc(Cl)ccn3)ccc2nc1-c1ccccc1 [15BT, 5-(7-{[(4-chloropyridin-2-yl)methyl]carbamoyl}-3-phenylquinoxalin-2-yl)pentanoic acid]	0.1 to 2	–
O=C(O)CCCCc1nc2cc(C(=O)NCc3cccc(Cl)n3)ccc2nc1-c1ccccc1 [15BU, 5-(7-{[(6-chloropyridin-2-yl)methyl]carbamoyl}-3-phenylquinoxalin-2-yl)pentanoic acid]	0.1 to 2	–
O=C(O)CCCCc1nc2cc(C(=O)N3CCCc4ccccc43)ccc2nc1-c1ccccc1 [15Bi, 5-[7-(3,4-dihydro-quinolin-1(2H)-ylcarbonyl)-3-phenylquinoxalin-2-yl]pentanoic acid]	0.1 to 2	–
CN(C(=O)c1ccc2nc(-c3ccccc3)c(CCCCC(=O)O)nc2c1)C1CCOC1 (centres unmarked) [15Bo, 5-{7-[methyl (tetrahydrofuran-3-yl)carbamoyl]-3-phenylquinoxalin-2-yl} pentanoic acid]	20.1 to 200	–
O=C(O)CCCCc1nc2cc(C(=O)NCc3ccc(C(F)(F)F)cc3)ccc2nc1-c1ccccc1 [15C, 5-(3-phenyl-7-{[4-(trifluoromethyl)benzyl]carbamoyl}quinoxalin-2-yl)pentanoic acid]	0.1 to 2	–
C[C@@H](NC(=O)c1ccc2nc(-c3ccccc3)c(CCCCC(=O)O)nc2c1)c1ccc(F)cc1 [15D, 5-(7-{[(1R)-1-(4-fluorophenyl)ethyl]carbamoyl}-3-phenyl-quinoxalin-2-yl)pentanoic acid]	0.1 to 2	–
C[C@H](NC(=O)c1ccc2nc(-c3ccccc3)c(CCCCC(=O)O)nc2c1)c1ccc(F)cc1 [15E, 5-(7-{[(1S)-1-(4-fluorophenyl)ethyl]carbamoyl}-3-phenylquinoxalin-2-yl)pentanoic acid]	0.1 to 2	–
O=C(O)CCCCc1nc2cc(C(=O)N[C@@H](c3ccccc3)C(F)(F)F)ccc2nc1-c1ccccc1 [15F, 5-(3-phenyl-7-{[(1S)-2,2,2-trifluoro-1-phenylethyl]carbamoyl}quinoxalin-2-yl) pentanoic acid]	2.1 to 20	–

SMILES	Ki (rated A-E (Table A)) [nM]	Ki (values in text) [nM]
O=C(O)CCCCc1nc2cc(C(=O)N[C@H](c3ccccc3)C(F)(F)F)ccc2nc1-c1ccccc1 [15G, 5-(3-phenyl-7-{[(1R)-2,2,2-trifluoro-1-phenylethyl]carbamoyl}quinoxalin-2-yl) pentanoic acid]	2.1 to 20	–
O=C(O)CCCCc1nc2cc(C(=O)N3CCC4(CC3)CNC4)ccc2nc1-c1ccccc1 [15H, 5-[7-(2,7-diazaspiro-[3.5]non-7-ylcarbonyl)-3-phenylquinoxalin-2-yl]pentanoic acid]	20.1 to 200	152
O=C(O)CCCCc1nc2cc(C(=O)N3CCNC(c4ccccc4)C3)ccc2nc1-c1ccccc1 (centres unmarked) [15J, 5-{3-phenyl-7-[(3-phenylpiperazin-1-yl)carbonyl]quinoxalin-2-yl}pentanoic acid]	2.1 to 20	–
O=C(O)CCCCc1nc2cc(C(=O)N3CCNC(Cc4ccccc4)C3)ccc2nc1-c1ccccc1 (centres unmarked) [15K, 5-{7-[(3-benzylpiperazin-1-yl)carbonyl]-3-phenyl-quinoxalin-2-yl}pentanoic acid]	2.1 to 20	–
CCN1CCN(C(=O)c2ccc3nc(-c4ccccc4)c(CCCCC(=O)O)nc3c2)CC1 [15L, 5-{7-[(4-ethylpiperazin-1-yl)carbonyl]-3-phenylquinoxalin-2-yl}pentanoic acid]	20.1 to 200	–
COCCN1CCN(C(=O)c2ccc3nc(-c4ccccc4)c(CCCCC(=O)O)nc3c2)CC1 [15M, 5-(7-{[4-(2-methoxy-ethyl)piperazin-1-yl]-carbonyl}-3-phenyl-quinoxalin-2-yl) pentanoic acid]	20.1 to 200	–
COc1ccc(C2CCN(C(=O)c3ccc4nc(-c5ccccc5)c(CCCCC(=O)O)nc4c3)C2)cc1 (centres unmarked) [15N, 5-(7-{[3-(4-methoxy-phenyl)pyrrolidin-1-yl]-carbonyl}-3-phenyl-quinoxalin-2-yl) pentanoic acid]	2.1 to 20	–
O=C(O)CCCCc1nc2cc(C(=O)N3CCC(c4cccc(Cl)c4)C3)ccc2nc1-c1ccccc1 (centres unmarked) [15P, 5-(7-{[3-(3-chloro-phenyl)pyrrolidin-1-yl]-carbonyl}-3-phenyl-quinoxalin-2-yl) pentanoic acid]	0.1 to 2	–
O=C(O)CCCCc1nc2cc(C(=O)NC(c3ccc(F)cc3)C(F)(F)F)ccc2nc1-c1ccccc1 (centres unmarked) [15Q, 5-(3-phenyl-7-{[2,2,2-trifluoro-1-(4-fluoro-phenyl)ethyl]carbamoyl}-quinoxalin-2-yl)pentanoic acid]	0.1 to 2	–
O=C(O)CCCCc1nc2cc(C(=O)N3CCC(Cc4ccccc4)C3)ccc2nc1-c1ccccc1 (centres unmarked) [15R, 5-{7-[(3-benzylpyrrolidin-1-yl)carbonyl]-3-phenyl-quinoxalin-2-yl}pentanoic acid]	0.1 to 2	–
O=C(O)CCCCc1nc2cc(C(=O)N3CCC(c4ccc(F)cc4)C3)ccc2nc1-c1ccccc1 (centres unmarked) [15S, 5-(7-{[3-(4-fluorophenyl)-pyrrolidin-1-yl]carbonyl}-3-phenylquinoxalin-2-yl)-pentanoic acid]	0.1 to 2	–
O=C(O)CCCCc1nc2cc(C(=O)NCc3ccc(Cl)cc3)ccc2nc1-c1ccccc1 [15T, 5-{7-[(4-chlorobenzyl)-carbamoyl]-3-phenyl-quinoxalin-2-yl} pentanoic acid]	0.1 to 2	–
O=C(O)CCCCc1nc2cc(C(=O)NCc3cccc(Cl)c3)ccc2nc1-c1ccccc1 [15U, 5-{7-[(3-chlorobenzyl)carbamoyl]-3-phenylquinoxalin-2-yl}pentanoic acid]	2.1 to 20	–
O=C(O)CCCCc1nc2cc(C(=O)NCc3ccccc3Cl)ccc2nc1-c1ccccc1 [15V, 5-{7-[(2-chlorobenzyl)carbamoyl]-3-phenylquinoxalin-2-yl}pentanoic acid]	0.1 to 2	–
CC(C)(NC(=O)c1ccc2nc(-c3ccccc3)c(CCCCC(=O)O)nc2c1)c1ccccc1 [15X, 5-{7-[(1-methyl-1-phenylethyl)carbamoyl]-3-phenylquinoxalin-2-yl}pentanoic acid]	0.1 to 2	–
O=C(O)CCCCc1nc2cc(C(=O)N3CCCC(c4ccccc4)C3)ccc2nc1-c1ccccc1 (centres unmarked) [15Y, 5-{3-phenyl-7-[(3-phenylpiperidin-1-yl)carbonyl]quinoxalin-2-yl}pentanoic acid]	0.1 to 2	–
O=C(O)CCCCc1nc2cc(C(=O)NCc3ccccc3)ccc2nc1-c1ccccc1 [15Z, 5-[7-(benzylcarbamoyl)-3-phenylquinoxalin-2-yl]pentanoic acid]	0.1 to 2	–
O=C(O)CCCCc1nc2cc(C(=O)N3CC4(CCNCC4)C3)ccc2nc1-c1ccccc1 [15i, 5-[7-(2,7-diazaspiro-[3.5]non-2-ylcarbonyl)-3-phenylquinoxalin-2-yl]pentanoic acid]	201 to 700	283
